According to patent US7740831B2, “Compositions for potentiating glutathione” (Fancl Corporation, priority 2001, dated 2010):

Columns and labels:
B16 melanoma cells = test: Skin whitening test (melanin suppression); assay type: cell-based, mouse; conditions: 3 days; for Melanin suppression rate (positive control): 3 mM; for Melanin suppression rate (compound): 20 μg/ml
Experimental: Melanin suppressing activity was measured by the following test using the extracts of Lamium album, Euphrasia officinalis, Plantago psyllium, Plantago psyllium seeds, Olea europaea, Forsythia suspensa, Conandron ramondioides Siebold et Zucc, Osmanthus fragrans, Osmanthus asiaticus, Syringa vulgaris, Verbena officinalis L., and Momordica charantia L., and hydrolysates thereof obtained in Example 1, DPE obtained in Examples 3 and 4, and the DPE glycosides obtained in Example 5.
Cultured B16 melanoma cells derived from mouse provided as melanin producing cells were cultured in a minimum basic culture medium (MEM) to which FBS was added so as to have a final concentration of 10%. At a concentration of 3×10^3 cell/ml, those cells were inoculated in a 6-well plate (6 ml in each well), and were cultured in a CO2 incubator for 5 days, after which the culture medium was exchanged. […] Then, after further culturing for 3 days under the same conditions, the cells were washed and stripped by a scraper treatment. The cells were then solubilized with sodium dodecylsulfate (SDS), and the absorbance values at 475 nm and 260 nm were measured (these values were taken as S475 and S260). The melanin suppression rate was calculated using the following Equation 1, with the absorbance values at 475 nm and 260 nm obtained for cells cultured in a culture medium to which no test substances were added taken as C475 and C260, respectively. 3 mM vitamin C and 3 mM kojic acid were used as positive controls. As is shown in Tables 7 and 8, the production of melanin is suppressed by the addition of the test substances, so that the test substances show a skin whitening effect.

[1] = system: Clone 9 human liver cells; test: Effect on liver cell (intracellular glutathione); conditions: compound 10 μg/ml, 24 hours
Experimental: Clone 9 human liver cells (8×10^6 cells) (manufactured by Dainippon Pharmaceutical Co., Ltd.) were inoculated in a petri dish (manufactured by Nunc) with a diameter of 6 cm, and the cells were cultured in DMEM containing 10% deactivated FBS for 3 days at 37° C. in the presence of 5% carbon dioxide gas. When the cells were 80% confluent, the medium was exchanged with DMEM containing 0.5% FBS. After the cells were naturalized for 24 hours, the culture medium was removed by suction and exchanged with fresh DMEM containing 0.5% FBS, and the test substances were dissolved in ethanol. […] 24 hours after the addition, the cells were collected, and glutathione measurements were performed by the method described in Example 5.

[2] = system: CCD 1059 normal human skin fibroblasts; test: Measurement of glutathione activity (intracellular glutathione, method of Baker et al.); assay type: cell-based; conditions: 24 hours
Experimental: The cells were then collected after being cultured for 24 hours. […] The collected cells were disrupted using sonication, and proteins were removed using metaphosphoric acid. Then, the solutions were again neutralized, to thereby produce samples used for glutathione measurement. The measurement of glutathione was performed using the method of Baker et al. (Anal. […] Then, the absorbance at 405 nm was measured, and this was taken as the glutathione concentration.

[3] = system: CCD 1059 normal human skin fibroblasts; test: Resistance to active oxygen (singlet oxygen, rose bengal) cell damage after glutathione potentiation; assay type: cell-based; conditions: compound 20 μg/ml, 24 h preincubation then removed; singlet oxygen exposure; untreated control 28
Experimental: Then, preincubation was performed for 24 hours at 37° C., so that the intracellular glutathione concentration was increased. […] The present test was performed in order to evaluate whether it was possible to alleviate the effects of the active oxygen that was generated by increasing the intracellular glutathione concentration, so that the plants, hydrolysates thereof, DPE, and DPE glycosides discovered by the present invention were completely removed after the preincubation.
After the cells were washed, rose bengal (which is a singlet oxygen generating agent) was dissolved in Hanks solution so as to have a final concentration of 50 μM, and was added to the cells. The cells were then irradiated for 10 minutes with visible light, so that the cells were exposed to singlet oxygen. The time for which the cells were immersed in Hanks solution and the time for which the cells were exposed to visible light were the same for all of the groups. After the exposure, the cells were again washed with Hanks solution, and the culture medium was exchanged with DMEM containing 10% FBS. After 3 days, the cells were counted by means of a Coulter counter, and the numbers of living cells were compared. In this comparison, an evaluation was performed with the number of cells in a non-exposed group that was not exposed to singlet oxygen taken as 100%. It is seen from Table 6 that the survival rates of the respective groups exposed to singlet oxygen were improved (compared to a group that was not treated with any test substance (control)) by the addition of the above-mentioned plant extracts, hydrolysates thereof, DPE, and DPE glycosides.

[4] = system: cystine transporter (xCT); test: Cystine transporter (xCT) production ability by Western blotting; assay type: cell-based, human; conditions: compound 20 μg/ml, 24 hours
From the text: When the cells were 80% confluent, the medium was exchanged with DMEM containing 0.5% FBS.

[5] = system: gamma-glutamyl cysteine synthetase mRNA; test: γ-glutamylcysteine synthetase production promoting activity by RT-PCR; assay type: cell-based, human; conditions: compound 20 μg/ml, 8 hours
Experimental: After 8 hours, total RNA was collected by using TRIZOL reagent (Life Technologies Oriental, Inc.) following a protocol.
Gamma-glutamyl cysteine synthetase mRNA and G3PDH mRNA expression promoting activities were measured with RT-PCR high (Toyobo Co., Ltd.) using the collected total RNA. The G3PDH gene is known as a housekeeping gene and expresses in all cells constantly, so that the gene is widely used as a control gene. The following primers were used for PCR: 5′-TGA AAC TCT GCA AGA GAA GOG G-3′ (SEQ ID NO: 1) and 5′-GCT TCA TCT GGA AAG AGO AGG G -3′ (SEQ ID NO: 2) (gamma-glutamyl cysteine synthetase); and 5′-ACCACAGTCCATGCCATCAC-3′ (SEQ ID NO: 3) and 5′-TCCACCACCCTGTTGCTGTA-3′ (SEQ ID NO: 4) (G3PDH). […] Then, the intensity of staining was measured using image analysis software ImageMaster 1D (manufactured by Amersham Pharmacia Biotech Co.). The group in which no test substances were added (1% ethanol) was taken as a control, and the amount of expression was evaluated by a comparison of the amounts of expression in cases where test substances were added (with a value obtained by dividing the staining intensity of the γ-glutamylcysteine synthetase mRNA by the staining intensity of G3PDH taken as 1). […]

[6] = system: CCD 1059 normal human skin fibroblasts; test: Effect of combined use of S-containing compound (cysteine) on intracellular glutathione; assay type: cell-based; conditions: compound 2.5 μg/ml, control = cysteine only
Experimental: CCD 1059 normal human skin fibroblasts (1.5×10^5 cells) (manufactured by Dainippon Pharmaceutical Co., Ltd.) were inoculated in a petri dish (manufactured by Nunc) with a diameter of 6 cm, and the cells were cultured in Dulbecco's modified Eagle's medium (DMEM) containing 10% deactivated fetal bovine serum (hereafter abbreviated to “FBS”) for 3 days at 37° C. in the presence of 5% carbon dioxide gas. When the cells were 80% confluent, the medium was exchanged with DMEM containing 0.5% fetal bovine serum (hereafter abbreviated to “FBS” in some cases). After the cells were naturalized for 24 hours, the culture medium was removed by suction and exchanged with fresh DMEM containing 0.5% FBS and the test substances were dissolved in ethanol. […] The cells were then collected after being cultured for 24 hours. […] The collected cells were disrupted using sonication, and proteins were removed using metaphosphoric acid. Then, the solutions were again neutralized, to thereby produce samples used for glutathione measurement. […] To describe the method briefly, reduced nicotinamide adenine dinucleotide phosphate (NADPH), glutathione reductase, and 5,5′-dithiobis(2-nitrobenzoic acid) (DNTB) provided as a coloring agent were added to a 2-(N-morpholino)ethanesulfonate buffer (MES buffer), and the mixture was reacted with each measurement sample or a standard substance used to produce a calibration curve. Then, the absorbance at 405 nm was measured, and this was taken as the glutathione concentration.
However, since it was desired to add an S-containing compound at an arbitrary concentration, the culture medium used in the case of this addition was DMEM that contains no S-containing compound (i.e., a medium that was free of methionine, cysteine, or cystine). […] A comparison was made by calculation from the ratio relative to respective control groups in which only cysteine was added in the same amounts (groups in which only cysteine was added were taken as control groups in which the respective final concentrations of cysteine were 200 and 400 μM, and the activities of the respective test substance groups were evaluated as ratios relative to the control groups with the activities of the respective control groups taken as 1).

[7] = system: CCD 1059 normal human skin fibroblasts; test: Effect of combined use of S-containing compound (cystine) on intracellular glutathione; assay type: cell-based; conditions: compound 10 μg/ml, control = cystine only
Experimental: CCD 1059 normal human skin fibroblasts (1.5×10^5 cells) (manufactured by Dainippon Pharmaceutical Co., Ltd.) were inoculated in a petri dish (manufactured by Nunc) with a diameter of 6 cm, and the cells were cultured in Dulbecco's modified Eagle's medium (DMEM) containing 10% deactivated fetal bovine serum (hereafter abbreviated to “FBS”) for 3 days at 37° C. in the presence of 5% carbon dioxide gas. When the cells were 80% confluent, the medium was exchanged with DMEM containing 0.5% fetal bovine serum (hereafter abbreviated to “FBS” in some cases). […] Then, the absorbance at 405 nm was measured, and this was taken as the glutathione concentration.
However, since it was desired to add an S-containing compound at an arbitrary concentration, the culture medium used in the case of this addition was DMEM that contains no S-containing compound (i.e., a medium that was free of methionine, cysteine, and cystine). […] A comparison was made by calculation from the ratio relative to respective control groups in which only cystine was added (groups in which only cystine was added were taken as control groups, and the activities of the respective test substance groups were evaluated as ratios relative to the control groups with the activities of the respective control groups taken as 1).

rats = test: Long-term oral administration to rats (toxicity); assay type: in vivo; conditions: 100 days, 1,000 mg/kg per day
From the text: DPE or a glycoside thereof has a low toxicity.

O=c1cc(CO)occ1O [Kojic acid, reference compound]
Melanin suppression rate (positive control) (B16 melanoma cells): 39.9%

OCCc1ccc(O)c(O[C@@H]2O[C@H](CO)[C@@H](O)[C@H](O)[C@H]2O)c1 [DPE-3′-O-β-D-Glucopyranocide, 2-(3,4-dihydroxyphenyl)ethanol-3′-O-β-D-glucopyranocide]
Effect on hepatocyte (glutathione), ratio to control [1]: 1.26 | Glutathione enhancing activity (compound), ratio to control ([2]; 2.5 μg/ml): 1.15 | Glutathione enhancing activity (compound), ratio to control ([2]; 5 μg/ml): 1.19 | Glutathione enhancing activity (compound), ratio to control ([2]; 10 μg/ml): 1.25 | Glutathione enhancing activity (compound), ratio to control ([2]; 20 μg/ml): 1.73 | Survival rate (%: based on non-exposed group) [3]: 46% | Amount of xCT expression (Relative to control) [4]: 1.3 | Gamma-glutamyl cysteine synthetase/G3PDH (Relative to control) [5]: 3.8 | Combined effect with cysteine, ratio to control, cysteine 200 μM added group [6]: 1.26 | Combined effect with cysteine, ratio to control, cysteine 400 μM added group [6]: 1.52 | Melanin suppression rate (compound) (B16 melanoma cells): 32.3% | Combined effect with cystine, ratio to control, cystine 200 μM added group [7]: 1.56

OCCc1ccc(O[C@@H]2O[C@H](CO)[C@@H](O)[C@H](O)[C@H]2O)c(O)c1 [DPE-4′-O-β-D-Glucopyranocide, 2-(3,4-dihydroxyphenyl)ethanol-4′-O-β-D-glucopyranocide]
Survival rate (%: based on non-exposed group) [3]: 37% | Melanin suppression rate (compound) (B16 melanoma cells): 35.4%

OC[C@H]1O[C@@H](OCCc2ccc(O)c(O)c2)[C@H](O)[C@@H](O)[C@@H]1O [DPE-1-O-β-D-Glucopyranocide, 2-(3,4-dihydroxyphenyl)ethanol-1-O-β-D-glucopyranocide]
Survival rate (%: based on non-exposed group) [3]: 42% | Melanin suppression rate (compound) (B16 melanoma cells): 24.6%

O=C1O[C@H]([C@@H](O)CO)C(O)=C1O [Vitamin C, reference compound]
Melanin suppression rate (positive control) (B16 melanoma cells): 23.0%

OCCc1ccc(O)c(O)c1 [DPE, 2-(3,4-dihydroxyphenyl)ethanol]
Effect on hepatocyte (glutathione), ratio to control [1]: 1.16 | Mortality (rats): no cases of mortality | Glutathione enhancing activity (compound), ratio to control ([2]; 2.5 μg/ml): 1.36 | Glutathione enhancing activity (compound), ratio to control ([2]; 5 μg/ml): 1.85 | Glutathione enhancing activity (compound), ratio to control ([2]; 10 μg/ml): 2.33 | Glutathione enhancing activity (compound), ratio to control ([2]; 20 μg/ml): 2.74 | Survival rate (%: based on non-exposed group) [3]: 61% | Amount of xCT expression (Relative to control) [4]: 4.8 | Gamma-glutamyl cysteine synthetase/G3PDH (Relative to control) [5]: 8.2 | Combined effect with cysteine, ratio to control, cysteine 200 μM added group [6]: 1.25 | Combined effect with cysteine, ratio to control, cysteine 400 μM added group [6]: 1.89 | Melanin suppression rate (compound) (B16 melanoma cells): 52.3% | Combined effect with cystine, ratio to control, cystine 200 μM added group [7]: 3.42
